Earlier results on one compound are cited in patent US20220213156A1, “Peptides for use in therapy or prophylaxis of Herpesviridae-infections” (priority 2019, published 2022).

Where “and” joins values, the source holds several entries; their conditions need not be identical. Identical values can stand only once.

One may read the IC50 as the concentration that inhibits the measured activity by half.

For the series, the system named is multidrug resistant CMV isolate (H815-2006). Conditions: isolate H815-2006 with UL97 L595S and UL54 V715M; cited from earlier work.

On to `Nc1nc(O)c2ncn(COC(CO)CO)c2n1` [GCV, Ganciclovir], for which the IC50 is > 30 µM and 31.5 µM.
